From patent US11933794B2, “Method for determining factor Xa inhibitor dosage” (Good Biomarker Sciences B.V., priority 2017, dated 2024)

Key:
[1] = tested on: fibrin clot formation in blood plasma; experiment: Clot growth rate assay (Thrombodynamics) in plasma samples with defined Factor VIII levels; type: biochemical, human; details: for inhibition of clot growth rate: FIG. 1
Source text: (§1) The clot growth rate assay monitors over time fibrin clot development in a nonstirred thin layer of platelet-free plasma activated by immobilized tissue factor. For this, the Thrombodynamics Basic Kit can be used as an in vitro diagnostic kit used to perform measurements of spatiotemporal dynamics of fibrin clot formation in blood plasma samples. The kit consists of measurement cuvettes, activating inserts and reagents for samples treatment. The kit is obtainable from HemaCore intended for professional use in the laboratory on the Thrombodynamics Analyzer T-2. See, for further details, Soshitova et al. (Blood Coagul. Fibrinolysis, 2012 September; 23(6):498-507).
Five plasma samples were prepared containing 50%, 75%, 100%, 150%, or 200% Factor VIII, respectively. The samples were prepared using FVIII-deficient plasma, normal plasma from healthy subjects, and FVIII concentrate and Factor VIII levels were measured and confirmed by the one-stage clotting assay. Each of these five plasma samples was subdivided into five subsamples to which apixaban was added to a total concentration of 0 μM, 0.1 μM, 0.2 μM, 0.35 μM, or 0.5 μM in plasma, respectively. The 25 subsamples were subjected to a clot growth assay as described above, and the clot growth rate was measured at 2500 seconds after start of growth.
For each different Factor VIII concentration (i.e., 50%, 75%, 100%, 150% or 200%), five bars are shown representing subsamples to which apixaban was added to a different total concentration, i.e., 0 μM, 0.1 μM, 0.2 μM, 0.35 μM, or […], respectively.

[2] = tested on: clot growth in hemophilia plasma (deficient in Factor IX and Factor VIII); experiment: Clot growth experiments comparing normal and hemophilia plasma; type: biochemical, human; details: hemophilia plasmas; in contrast to what was found in normal plasma
Source text: For clot growth, this now appears the key mechanism. In contrast, in text books, activation of Factor VIII is indicated to be a thrombin action.
as §1

coagulation status = experiment: Coagulation status of patients by routine coagulation test (activated partial thromboplastin time, APTT); type: in vivo, human
Protocol: Four subjects in need of […] are selected, including three patients with thrombosis, and one patient with coronary artery disease.
Coagulation status of patients 1-4 is determined by a routine coagulation test (activated partial thromboplastin time, APTT).

coagulation status (APTT): risk of blood clotting or bleeding events (coagulation status; Patient 2 (thrombosis), Factor VIII 95% of standard plasma, 20 mg per day) | Compound | effects in the clot growth rate assay compared with apixaban ([1]; FIG. 2) | inhibition of clot growth [2] | inhibition of clot growth rate ([1]; Factor VIII level below 100%, lowest apixaban concentration (0.1 μM in plasma)) | inhibition of clot growth rate ([1]; Factor VIII levels above 100%, 0.1 μM apixaban) | inhibition of clot growth rate ([1]; Factor VIII levels above 100%, 0.35 μM apixaban in plasma) | coagulation status (APTT): risk of blood clotting or bleeding events (coagulation status; Patient 1 (thrombosis), Factor VIII 80% of standard plasma, 5 mg per day) | coagulation status (APTT): risk of blood clotting or bleeding events (coagulation status; Patient 4 (coronary artery disease), Factor VIII 240% of standard plasma, 5 mg per day)
– | O=C(NC[C@H]1CN(c2ccc(N3CCOCC3=O)cc2)C(=O)O1)c1ccc(Cl)s1 [rivaroxaban] | closely mimic the effects of apixaban | did not inhibit clot growth | – | – | – | – | –
– | COc1ccc(-n2nc(C(N)=O)c3c2C(=O)N(c2ccc(N4CCCCC4=O)cc2)CC3)cc1 [apixaban] | – | did not inhibit clot growth | close to maximal inhibition | not be very effective | substantial inhibition | no increased risk of blood clotting or bleeding events | increased risk of blood clotting events
increased risk of bleeding events | CN1CCc2nc(C(=O)N[C@@H]3C[C@@H](C(=O)N(C)C)CC[C@@H]3NC(=O)C(=O)Nc3ccc(Cl)cn3)sc2C1 [edoxaban] | – | – | – | – | – | – | –
